Test results: patent US9770452B2, “Quinoxaline derivatives as GPR6 modulators” (Takeda Pharmaceutical Company Limited, priority 2012, dated 2017)
Structures can show the parent of a compound that is named as a salt. Where two headings read alike, the source gives them in different places.

Molecular target: T1, GPR6 receptor (Homo sapiens, UniProt P46095)
T1 construct: expressed in transfected cells
Assay: Inhibition of cAMP Activity of GPR6 In Vitro Assay (CHO-K1 cells, HTRF cAMP)
Format: cell-based
Conditions: inhibition of constitutive cAMP activity of GPR6 expressed in CHO-K1 cells, approximate IC50, read-out: IC50
In short: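 CHO-K1 cells with doxycycline-induced (1 μg/ml, 20 h) GPR6 treated with compounds 45 min at 37 °C in Ringer's buffer (pH 7.4) with 0.5% fatty acid free BSA. Constitutive cAMP measured by Lance HTRF Ultra cAMP; IC50 from four-parameter logistic fit.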

T1 sequence (P46095 whole entry): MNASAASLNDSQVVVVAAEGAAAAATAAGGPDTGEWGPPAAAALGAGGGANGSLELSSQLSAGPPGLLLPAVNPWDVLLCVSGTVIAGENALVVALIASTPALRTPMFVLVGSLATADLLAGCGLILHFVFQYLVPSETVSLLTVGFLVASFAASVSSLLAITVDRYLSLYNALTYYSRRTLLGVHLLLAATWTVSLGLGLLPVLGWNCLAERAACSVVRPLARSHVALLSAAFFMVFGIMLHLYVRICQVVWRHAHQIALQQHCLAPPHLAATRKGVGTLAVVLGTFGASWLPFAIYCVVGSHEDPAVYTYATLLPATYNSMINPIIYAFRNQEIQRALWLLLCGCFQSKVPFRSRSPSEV

IC50 (compounds of Compound Table 2) [µM] | Compound | IC50 (compounds of Compound Table 1) [µM]
 | CC(C)Nc1nc2cnncc2nc1N1CCC(Oc2ccc(Cl)cc2F)CC1 [Cpd 644, 3-(4-(4-chloro-2-fluorophenoxy)piperidin-1-yl)-N-isopropylpyrazino[2,3-d]pyridazin-2-amine, 2,2,2-trifluoroacetic acid salt] | 0.007
 | O=C(c1cc(Cl)ccc1Cl)N1CCN(c2nc3ccccc3nc2NC2CCCC2)CC1 [Cpd 39, (4-(3-(cyclopentylamino)quinoxalin-2-yl)piperazin-1-yl)(2,5-dichlorophenyl)methanone, 2,2,2-trifluoroacetic acid salt] | 6.15
 | N-cyclopropyl-3-(4-(3-methoxyphenoxy)piperidin-1-yl)pyrido[3,4-b]pyrazin-2-amine, 2,2,2-trifluoroacetic acid salt [Cpd 558] | 1.94
 | (R)-7-chloro-N-cyclopropyl-3-(4-((2,4-difluorophenyl)fluoromethyl)piperidin-1-yl)pyrido[3,4-b]pyrazin-2-amine, 2,2,2-trifluoroacetic acid salt [Cpd 523] | 0.34
 | (1-(2-(cyclopropylamino)pyrido[3,4-b]pyrazin-3-yl)piperidin-4-yl)(3-fluorophenyl)methanone, 2,2,2-trifluoroacetic acid salt [Cpd 568] | 2.18
 | 2-(cyclobutylamino)-3-(4-(2,5-dichlorobenzyl)piperazin-1-yl)quinoxaline-6-carbonitrile, 2,2,2-trifluoroacetic acid salt [Cpd 336] | 0.96
 | 8-chloro-N-cyclopropyl-3-(4-((2,5-difluorophenyl)fluoromethyl)piperidin-1-yl)pyrido[3,4-b]pyrazin-2-amine, 2,2,2-trifluoroacetic acid salt [Cpd 486] | 0.098
 | 3-(4-(2,5-difluorobenzoyl)piperidin-1-yl)-2-(isopropylamino)-N,N-dimethylpyrido[3,4-b]pyrazine-7-carboxamide, 2,2,2-trifluoroacetic acid salt [Cpd 635] | 0.04
 | 3-(4-((2-cyanophenyl)sulfonyl)piperazin-1-yl)-2-(cyclopropylamino)quinoxaline-6-carbonitrile, 2,2,2-trifluoroacetic acid salt [Cpd 252] | 2.54
 | Cc1cc(C(=O)N2CCN(c3nc4ccccc4nc3NC3CC3)CC2)no1 [Cpd 98, (4-(3-(cyclopropylamino)quinoxalin-2-yl)piperazin-1-yl)(5-methylisoxazol-3-yl)methanone] | 3.21
 | Clc1cccc(CN2CCN(c3nc4ccccc4nc3Nc3ncccn3)CC2)c1 [Cpd 126, 3-(4-(3-chlorobenzyl)piperazin-1-yl)-N-(pyrimidin-2-yl)quinoxalin-2-amine, 2,2,2-trifluoroacetic acid salt] | 47
 | N-cyclopropyl-3-(4-(4-(methylthio)phenoxy)piperidin-1-yl)pyrido[3,4-b]pyrazin-2-amine, 2,2,2-trifluoroacetic acid salt [Cpd 600] | 0.02
 | 3-(1-(7-bromo-2-(cyclopropylamino)pyrido[3,4-b]pyrazin-3-yl)piperidine-4-carbonyl)-4-fluorobenzonitrile [Cpd 602] | 0.146
 | (2-(cyclopropylamino)-3-(4-(2-fluoro-4-methoxyphenoxy)piperidin-1-yl)pyrido[3,4-b]pyrazin-7-yl)(4-methylpiperazin-1-yl)methanone [Cpd 603] | 1.02
 | 3-(4-(5-(tert-butyl)-2-methoxybenzyl)piperazin-1-yl)-N-cyclopropylpyrido[3,4-b]pyrazin-2-amine, 2,2,2-trifluoroacetic acid salt [Cpd 306] | 0.38
 | 4-((1-(2-(cyclopropylamino)pyrido[3,4-b]pyrazin-3-yl)piperidin-4-yl)oxy)-N,N-dimethylbenzamide, 2,2,2-trifluoroacetic acid salt [Cpd 588] | 2.74

IC50 (compounds of Compound Table 2) [µM] | Compound | IC50 (compounds of Compound Table 1) [µM]
 | 3-(4-((3-chloro-5-fluoro-2-methylphenyl)sulfonyl)piperazin-1-yl)-2-(cyclopropylamino)quinoxaline-6-carbonitrile, 2,2,2-trifluoroacetic acid salt [Cpd 282] | 4.29
 | (S)-2-(cyclopropylamino)-3-(4-((2,4-difluorophenyl)fluoromethyl)piperidin-1-yl)pyrido[3,4-b]pyrazine-7-carbonitrile [Cpd 547] | 0.016
 | (4-chloro-2-(trifluoromethyl)phenyl)(4-(2-(cyclopropylamino)pyrido[3,4-b]pyrazin-3-yl)piperazin-1-yl)methanone, 2,2,2-trifluoroacetic acid salt [Cpd 392] | 0.26
 | 2-(4-(2,4-difluorophenoxy)piperidin-1-yl)-N-isopropylpyrido[3,4-b]pyrazin-3-amine [Cpd 656] | 0.014
 | Clc1ccc(Cl)c(CN2CCN(c3nc4ncccc4nc3NC3CC3)CC2)c1 [Cpd 63, N-cyclopropyl-3-(4-(2,5-dichlorobenzyl)piperazin-1-yl)pyrido[2,3-b]pyrazin-2-amine] | 1.13
 | 2-(cyclopropylamino)-3-(4-(m-tolylsulfonyl)piperazin-1-yl)quinoxaline-6-carbonitrile [Cpd 239] | 4.74
 | N-cyclopropyl-3-(4-(4-methoxyphenoxy)piperidin-1-yl)pyrido[3,4-b]pyrazin-2-amine [Cpd 552] | 0.024
 | 3-(4-(4-chlorobenzyl)piperidin-1-yl)-N-cyclopropylpyrido[3,4-b]pyrazin-2-amine, 2,2,2-trifluoroacetic acid salt [Cpd 424] | 0.31
 | N-cyclopropyl-3-(4-(2,5-dichlorobenzyl)piperazin-1-yl)pyrido[3,4-b]pyrazin-2-amine, 2,2,2-trifluoroacetic acid salt [Cpd 134] | 1.64
 | N-cyclopropyl-3-(4-(2,4-difluorobenzyl)piperidin-1-yl)-6-fluoroquinoxalin-2-amine, 2,2,2-trifluoroacetic acid salt [Cpd 479] | 0.14
 | 2-(cyclopropylamino)-3-(4-(2-fluoro-4-methoxybenzyl)piperazin-1-yl)pyrido[3,4-b]pyrazine-5-carbonitrile, 2,2,2-trifluoroacetic acid salt [Cpd 613] | 0.092
0.84 | N#Cc1ccc2nc(NC3CC3)c(C3CCN(Cc4cc(Cl)ccc4Cl)CC3)nc2c1 [Compound Table 2: Cpd 3, 2-(cyclopropylamino)-3-(1-(2,5-dichlorobenzyl)piperidin-4-yl)quinoxaline-6-carbonitrile, 2,2,2-trifluoroacetic acid salt] | 
 | (4-chlorophenyl)(4-(2-(cyclopropylamino)pyrido[3,4-b]pyrazin-3-yl)piperazin-1-yl)methanone [Cpd 263] | 0.12
 | COc1ccc(Nc2nc3ccccc3nc2N2CCN(Cc3cccc(Cl)c3)CC2)cc1 [Cpd 31, 3-(4-(3-chlorobenzyl)piperazin-1-yl)-N-(4-methoxyphenyl)quinoxalin-2-amine, 2,2,2-trifluoroacetic acid salt] | 6.14
 | (1-(2-(cyclopropylamino)pyrido[3,4-b]pyrazin-3-yl)piperidin-4-yl)(o-tolyl)methanone, 2,2,2-trifluoroacetic acid salt [Cpd 565] | 15.4
 | N-cyclopropyl-3-(4-(2-fluoro-4-(methylthio)phenoxy)piperidin-1-yl)pyrazino[2,3-d]pyridazin-2-amine, 2,2,2-trifluoroacetic acid salt [Cpd 618] | 0.012
